Each block holds one compound with its values, some of them ahead of it. Active and inactive are the calls of the source.
Key:
[1] = NIH-3T3 fibroblast cytotoxicity, dose response, cytotoxicity control, cell-based, fluorescence, Alamar Blue, secondary assay (AID 2327); assay type: functional;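 also: NIH-3T3 mouse fibroblasts cultured with fluconazole at 8 µg/mL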
[2] = fluconazole-exposed Candida albicans growth modulators – fluorescence, retest, confirmation (AID 2467); assay type: functional, cell-based
[3] = HPDE-C7 pancreatic duct cell viability loss – fluorescence, HTS (AID 430); assay type: functional, cell-based; details: Homo sapiens
[4] = viability loss of HPDE-C7K cells – cell-based, fluorescence, HTS, primary screen (AID 431); assay type: functional; details: Homo sapiens
[5] = molecular target: T1, Serine/threonine-protein phosphatase (Candida dubliniensis (strain CD36 / CBS 7987 / NCPF 3949 / NRRLY-17841) (Yeast), UniProt B9W6M3); assay: blockers of CaCl2-induced CDRE-lacZ signaling – S. cerevisiae, luminescence, secondary, dose response (AID 2388); assay type: functional, cell-based;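 also: yeast reporter cells carrying a calcineurin-responsive lacZ construct stimulated with calcium chloride; luminescent beta-galactosidase reporter signal in whole cells rather than isolated phosphatase activity; potency for inhibition where a drop in reporter signal means calcineurin blockade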
T1 sequence (B9W6M3 whole entry): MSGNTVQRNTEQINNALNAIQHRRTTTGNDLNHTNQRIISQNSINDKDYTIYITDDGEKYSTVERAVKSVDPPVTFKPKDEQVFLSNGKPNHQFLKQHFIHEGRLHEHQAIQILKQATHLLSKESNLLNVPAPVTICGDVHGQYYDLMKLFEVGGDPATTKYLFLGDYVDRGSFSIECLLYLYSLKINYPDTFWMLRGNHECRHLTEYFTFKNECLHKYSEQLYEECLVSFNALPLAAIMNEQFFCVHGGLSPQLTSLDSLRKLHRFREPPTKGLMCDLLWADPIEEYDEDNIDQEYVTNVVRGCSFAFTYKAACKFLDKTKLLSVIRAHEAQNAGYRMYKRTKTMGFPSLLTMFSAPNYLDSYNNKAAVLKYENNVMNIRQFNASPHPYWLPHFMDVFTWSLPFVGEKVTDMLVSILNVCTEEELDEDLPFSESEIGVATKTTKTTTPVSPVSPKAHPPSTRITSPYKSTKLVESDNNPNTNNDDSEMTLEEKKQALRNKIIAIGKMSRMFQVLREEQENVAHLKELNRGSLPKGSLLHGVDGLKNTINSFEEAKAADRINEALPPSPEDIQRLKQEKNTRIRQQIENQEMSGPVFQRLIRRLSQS

[6] = molecular target: T2, Short transient receptor potential channel 4 (Mus musculus, UniProt Q9QUQ5); assay: calcium entry via TRPC4 opening agents – cell-based, HEK293 TRPC4/mu-opioid, Fluo-4 calcium, dose response (AID 434937); assay type: functional
T2 sequence (Q9QUQ5 whole entry): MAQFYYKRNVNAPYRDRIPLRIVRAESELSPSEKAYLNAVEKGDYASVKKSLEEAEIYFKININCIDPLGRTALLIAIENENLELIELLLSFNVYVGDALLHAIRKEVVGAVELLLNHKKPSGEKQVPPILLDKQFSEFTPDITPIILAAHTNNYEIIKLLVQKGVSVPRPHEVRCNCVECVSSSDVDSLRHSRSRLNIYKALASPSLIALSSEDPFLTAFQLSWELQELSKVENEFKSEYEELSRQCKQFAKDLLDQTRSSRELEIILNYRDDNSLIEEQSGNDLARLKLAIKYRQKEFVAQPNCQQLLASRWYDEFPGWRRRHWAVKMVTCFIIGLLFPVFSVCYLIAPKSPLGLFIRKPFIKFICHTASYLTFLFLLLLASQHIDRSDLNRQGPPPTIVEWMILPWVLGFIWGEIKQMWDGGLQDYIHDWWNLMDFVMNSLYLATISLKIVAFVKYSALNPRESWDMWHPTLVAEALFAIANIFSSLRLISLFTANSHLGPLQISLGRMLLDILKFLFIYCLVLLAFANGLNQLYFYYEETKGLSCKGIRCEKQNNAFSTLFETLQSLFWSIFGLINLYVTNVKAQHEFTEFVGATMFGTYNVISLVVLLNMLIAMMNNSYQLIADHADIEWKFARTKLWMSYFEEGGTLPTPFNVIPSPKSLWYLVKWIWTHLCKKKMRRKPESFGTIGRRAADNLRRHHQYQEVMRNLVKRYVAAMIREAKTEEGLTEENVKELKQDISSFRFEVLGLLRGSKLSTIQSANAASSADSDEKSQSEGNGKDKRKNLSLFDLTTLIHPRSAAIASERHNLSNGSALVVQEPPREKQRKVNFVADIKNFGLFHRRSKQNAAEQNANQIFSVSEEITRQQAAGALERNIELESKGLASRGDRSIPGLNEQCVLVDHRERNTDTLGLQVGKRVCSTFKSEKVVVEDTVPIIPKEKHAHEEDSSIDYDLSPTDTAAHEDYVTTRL

[7] = HEK-293T viability loss after treatment – luminescence, T-cell screen hits, cytotoxicity control for TCR NF-kB inhibitor project, dose response (AID 489026); assay type: functional, cell-based;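 also: cells exposed to compound about 14 hours before the viability readout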
[8] = molecular target: ATP-dependent molecular chaperone HSP82 (Candida albicans (strain WO-1) (Yeast), UniProt C4YTQ8); assay: steroid-induced GRE reporter decrease in yeast – S. cerevisiae, luminescence, Hsp90 inhibitor project, dose response (AID 2400); assay type: functional, cell-based;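 also: beta-galactosidase luminescence from glucocorticoid response element reporter as proxy for Hsp90 function; inhibitor potency where signal loss means Hsp90 inhibition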
[9] = viability loss in CEM21 cells – cell-based, CellTiter-Glo luminescence, cherry-picked, cytotoxicity control for viral fusion inhibitor project, dose response (AID 652042); assay type: functional;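 also: potency for signal decrease meaning cytotoxicity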
[10] = blockers of HIV-1 ZM109 envelope-driven cell-cell fusion – HeLa effector, CEM target cells, luciferase, cherry-pick, dose response (AID 652058); assay type: functional, cell-based;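 also: luciferase signal from HIV-1 Env mediated cell-cell fusion of effector and target cells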
[11] = HIV-1 AD8 envelope cell-cell fusion blockers – cherry-pick, dose response (AID 652062); assay type: functional, cell-based;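 also: luciferase signal from cell-cell fusion driven by HIV-1 clade B AD8 Env; potency is for inhibitors of fusion seen as a drop in luminescence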
[12] = molecular target: COUP transcription factor 2 (Homo sapiens, UniProt P24468); assay: Luminescence-based cell-based high throughput dose response assay to identify inhibitors of COUP-TFII (NR2F2).; assay type: functional;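 also: HEK293 cells transiently cotransfected with COUP-TFII expression vector and reporter; luciferase reporter luminescence driven by COUP-TFII from the pX2-168 reporter plasmid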
fMet-Leu-Phe receptor = fMet-Leu-Phe receptor (Homo sapiens, UniProt P21462); assay: formyl peptide receptor binders – dose response (AID 519); assay type: functional
[13] = reduction of Shn3 3'UTR-driven luciferase in osteoblasts – cell-based, Clone20 osteoblasts, firefly luciferase, cherry-picked, dose response (AID 624132); assay type: functional;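 also: firefly luciferase luminescence from reporter carrying the Shn3 3'UTR in osteoblasts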
[14] = loss of viability in HepG2 cells – cell-based, CellTiter-Glo, cherry-picked, cytotoxicity control for Shn3 inhibitor project, dose response (AID 624134); assay type: functional
[15] = non-specific 3'UTR reporter inhibition in Clone20-Shn3RL – cell-based, Renilla luciferase, cherry-picked, counter-screen for Shn3 inhibitor project, dose response (AID 624133); assay type: functional
[16] = Shn3 3'UTR reporter signal decrease – cell-based, Clone20 osteoblasts, firefly luciferase, cherry-pick, set 2, Schnurri-3 inhibitor project, dose response (AID 720490); assay type: functional;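 also: actives lower the luminescence signal as inhibitors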
[17] = EF1alpha-driven Renilla reporter with control 3'UTR suppression – Clone20-Shn3RL cells, dual-Glo, cherry-pick, set 2, counter-screen for Shn3 3'UTR targeting project, dose response (AID 720724); assay type: functional, cell-based; details: Dual-Go Shn3RL
HEK293 [18] = assay: inhibition of NOD1-driven NF-kB reporter – cell-based, luminescence, uHTS, primary screen (AID 1578); assay type: functional; details: Homo sapiens
HEK293 [19] = assay: cells; assay type: functional, cell-based; details: Homo sapiens
HEK293 [20] = assay: cells; assay type: functional, cell-based; details: Homo sapiens; remark: listed apart in the source
HEK293 [21] = assay: NOD2 signaling inhibitors in MDP-stimulated cells, cell-based, uHTS, luminescence (AID 2001); assay type: functional; details: Homo sapiens
Tumor necrosis factor = Tumor necrosis factor (Homo sapiens, UniProt P01375); assay: analog potency on TNFa NF-kB signaling – cell-based, revised, SAR follow-up (AID 2337); assay type: functional
[22] = molecular target: T3, Nucleotide-binding oligomerization domain-containing protein 1 (Homo sapiens, UniProt Q9Y239); assay: blockers of NOD1 pathway activity – revised, SAR follow-up (AID 2333); assay type: functional
T3 sequence (Q9Y239 whole entry): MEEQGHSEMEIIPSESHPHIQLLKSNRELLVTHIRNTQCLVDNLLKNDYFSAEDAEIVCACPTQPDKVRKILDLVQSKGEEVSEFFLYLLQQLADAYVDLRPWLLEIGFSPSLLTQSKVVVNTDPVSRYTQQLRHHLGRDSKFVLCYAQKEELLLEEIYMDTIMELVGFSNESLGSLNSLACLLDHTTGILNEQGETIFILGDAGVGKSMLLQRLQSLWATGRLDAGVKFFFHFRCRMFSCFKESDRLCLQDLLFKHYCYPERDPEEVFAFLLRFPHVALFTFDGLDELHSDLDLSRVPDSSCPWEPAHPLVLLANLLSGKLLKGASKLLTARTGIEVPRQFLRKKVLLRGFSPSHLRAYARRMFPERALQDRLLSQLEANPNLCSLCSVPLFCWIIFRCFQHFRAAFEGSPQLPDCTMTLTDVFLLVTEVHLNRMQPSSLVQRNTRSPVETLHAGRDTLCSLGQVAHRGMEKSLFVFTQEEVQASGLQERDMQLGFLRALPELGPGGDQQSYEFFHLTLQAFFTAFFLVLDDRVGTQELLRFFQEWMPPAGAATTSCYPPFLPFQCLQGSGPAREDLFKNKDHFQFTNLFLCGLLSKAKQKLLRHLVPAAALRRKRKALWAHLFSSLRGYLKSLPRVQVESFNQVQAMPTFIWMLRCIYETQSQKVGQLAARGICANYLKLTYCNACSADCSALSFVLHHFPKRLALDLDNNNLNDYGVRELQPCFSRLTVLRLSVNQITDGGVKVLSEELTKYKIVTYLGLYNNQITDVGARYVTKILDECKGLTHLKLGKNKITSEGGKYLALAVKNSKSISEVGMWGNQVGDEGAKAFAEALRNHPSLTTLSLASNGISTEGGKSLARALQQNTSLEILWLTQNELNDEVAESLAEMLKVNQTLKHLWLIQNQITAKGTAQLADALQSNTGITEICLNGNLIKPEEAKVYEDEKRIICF

HEK293 [23] = assay: cells; details: Homo sapiens

Chain of fMet-Leu-Phe receptor (P21462 whole entry): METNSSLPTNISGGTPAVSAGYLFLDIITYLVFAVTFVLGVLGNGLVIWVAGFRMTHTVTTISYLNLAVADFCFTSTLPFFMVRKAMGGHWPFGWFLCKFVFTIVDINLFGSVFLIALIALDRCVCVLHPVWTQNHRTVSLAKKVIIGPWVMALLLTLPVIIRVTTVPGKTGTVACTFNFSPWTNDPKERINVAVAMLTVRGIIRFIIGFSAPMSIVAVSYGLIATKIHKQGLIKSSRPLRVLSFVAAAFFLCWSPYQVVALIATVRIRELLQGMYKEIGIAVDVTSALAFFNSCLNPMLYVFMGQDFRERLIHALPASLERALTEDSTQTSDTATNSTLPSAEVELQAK
Chain of ATP-dependent molecular chaperone HSP82 (C4YTQ8 whole entry, the tested form may be a part): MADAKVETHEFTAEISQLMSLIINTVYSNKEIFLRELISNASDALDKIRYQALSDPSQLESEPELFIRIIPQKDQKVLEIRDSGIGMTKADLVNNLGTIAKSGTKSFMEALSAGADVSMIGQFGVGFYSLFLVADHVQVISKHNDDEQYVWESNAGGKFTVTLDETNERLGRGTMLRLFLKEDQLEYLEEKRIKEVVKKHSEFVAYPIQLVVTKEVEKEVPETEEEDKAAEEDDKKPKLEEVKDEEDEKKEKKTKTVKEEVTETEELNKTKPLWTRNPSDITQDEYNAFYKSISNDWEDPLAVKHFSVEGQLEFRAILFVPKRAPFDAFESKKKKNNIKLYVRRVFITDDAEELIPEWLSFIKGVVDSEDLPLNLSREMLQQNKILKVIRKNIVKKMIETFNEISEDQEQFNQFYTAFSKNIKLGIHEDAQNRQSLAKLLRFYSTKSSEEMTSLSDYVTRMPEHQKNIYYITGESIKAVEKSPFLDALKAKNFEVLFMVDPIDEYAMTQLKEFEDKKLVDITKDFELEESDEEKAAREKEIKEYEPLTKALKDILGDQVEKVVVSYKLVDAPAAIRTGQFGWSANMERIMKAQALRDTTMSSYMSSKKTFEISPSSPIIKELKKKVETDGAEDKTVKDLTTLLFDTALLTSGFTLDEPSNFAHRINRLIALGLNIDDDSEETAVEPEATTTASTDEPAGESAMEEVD
Chain of Tumor necrosis factor (P01375 whole entry, the tested form may be a part): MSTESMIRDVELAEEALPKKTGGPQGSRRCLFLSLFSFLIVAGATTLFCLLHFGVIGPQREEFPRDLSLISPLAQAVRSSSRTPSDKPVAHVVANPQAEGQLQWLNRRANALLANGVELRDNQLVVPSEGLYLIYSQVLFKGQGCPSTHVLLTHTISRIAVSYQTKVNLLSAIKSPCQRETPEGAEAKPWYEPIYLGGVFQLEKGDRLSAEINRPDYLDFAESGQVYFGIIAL
Chain of COUP transcription factor 2 (P24468 whole entry): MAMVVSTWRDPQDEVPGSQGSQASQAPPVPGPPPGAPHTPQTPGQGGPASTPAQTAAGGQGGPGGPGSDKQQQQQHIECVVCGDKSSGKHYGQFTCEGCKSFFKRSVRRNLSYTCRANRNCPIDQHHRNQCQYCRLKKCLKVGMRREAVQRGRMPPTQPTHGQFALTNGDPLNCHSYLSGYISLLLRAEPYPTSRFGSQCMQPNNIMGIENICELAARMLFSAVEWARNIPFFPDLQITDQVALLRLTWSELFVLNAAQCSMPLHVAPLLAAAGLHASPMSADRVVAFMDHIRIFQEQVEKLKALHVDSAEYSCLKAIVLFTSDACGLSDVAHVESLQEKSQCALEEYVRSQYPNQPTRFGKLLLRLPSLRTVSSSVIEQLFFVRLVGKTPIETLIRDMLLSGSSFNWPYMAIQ

SMILES: c1ccc2c(c1)CCN(c1[nH]cnc3c4ccccc4nc1-3)C2
EC50 [1]: > 150 µM (inactive)
EC50 [2]: 1.01 µM (active)
EC50 [3]: 17.7 µM (active)
EC50 [4]: > 20 µM (not active)
EC50 [5]: > 180 µM (inactive)
EC50 [6]: 5.96 µM (active)
IC50 [7]: 21 µM (inactive)
EC50 [8]: > 150 µM (inactive)
AC50 [9]: 64.8 µM (active)
AC50 [10]: 2.62 µM (active)
AC50 [11]: 4.09 µM (active)
IC50 [12]: 4.69 µM (active)

Ki (fMet-Leu-Phe receptor): > 66.7 µM (inactive)
SMILES: Cc1nc(C)c(C(=O)C2=C(O)C(=O)N(CCCn3ccnc3)C2c2ccc(Cl)cc2)s1 (stereo unspecified)

SMILES: CCn1cc(CN(C)S(=O)(=O)c2ccc3ccccc3c2)c(C)n1
AC50 [13]: 1.56 µM (active)
AC50 [14]: 39.4 µM (active)
AC50 [15]: 22.8 µM (active)
AC50 [16]: 2.23 µM (active)
AC50 [17]: 1.8 µM (active)

Ki (fMet-Leu-Phe receptor): 5.5 µM (active)
SMILES: COc1ccccc1C1C(C(=O)c2ccccc2)=C(O)C(=O)N1CC(C)C (stereo unspecified)

SMILES: c1ccc(CNc2ncnc3scc(-c4cccs4)c23)nc1
EC50 (HEK293 [18]): 3.58 µM (active)
IC50 (HEK293 [19]): 6 µM (active)
IC50 (HEK293 [20]): 19.8 µM (active)
IC50 (HEK293 [21]): 5.05 µM (active)
IC50 (Tumor necrosis factor): 3.22 µM (active)
IC50 [22]: 2.69 µM (active)
AC50 [13]: 3.59 µM (active)
AC50 [14]: 67.1 µM (active)
AC50 [15]: 29.8 µM (active)
AC50 [16]: 3.71 µM (active)
AC50 [17]: 6.34 µM (active)
IC50 (HEK293 [23]): 13.5 µM (active)
